From patent publication US20090221441A1, “THREE-DIMENSIONAL CELLULAR ARRAY CHIP AND PLATFORM FOR TOXICOLOGY ASSAYS” (Rensselaer Polytechnic Institute, priority 2005, published 2009)
Entries after “also recorded” stand apart in the source; their conditions may differ.

Columns and labels:
in vitro = settings: human
Procedure: (§1) The cytotoxicity of drugs (or drug metabolites) was determined by staining the slide containing the cells with a Live/Dead test kit (Molecular Probes) that produces a green fluorescent response from living cells. At the end of the 3-day culture period post stamping, the three-dimensional cell chip (DataChip) was rinsed three times in PBS for 5 min each. One mL of a dye solution containing 0.5 μM calcein AM was applied to each three-dimensional cell chip using a glass slide with 1 mm thick perimeter gasket acting as a barrier to prevent loss of the dye solution.
(§2) Following incubation for 50 minutes at room temperature, excess dye in the collagen-gel drops was removed by incubating the slides in a petri dish containing 16 mL of PBS for 30 min on a gyratory shaker at 60 rpm. The three-dimensional cell chip was dried thoroughly with nitrogen. The three-dimensional cell chip was scanned with the GenePix® Professional 4200A scanner equipped with blue laser and standard blue filter to determine the green fluorescent intensity and was quantified from the scanning image using GenePix Pro 6.0 (Molecular Devices Co.).
(§3) Percent live cells=(FReaction/FMax)×100
(§4) where FReaction is the green fluorescence intensity of the reaction spot and FMax is the green fluorescence intensity of untreated fully viable cells.
(§5) For efficient stamping, MTMOS-coated glass slides were prepared to contain a sol-gel barrier on the periphery of the slides.
(§6) To this end […] of methyltrimethoxysilane (MTMOS) sol was prepared by mixing 2 mL of MTMOS with 1 mL of HCl (10 mM) and sonicated for 10 min. The sol was spotted on the periphery of the MTMOS-coated slide and then the slide was baked in an oven for 30 min at 120° C.
(§7) The MetaChip was stored at −80° C. for 1 day prior to use. Cytotoxicity studies were performed by spotting 20 nL of test compound in distilled water (0-2 mM) onto the MetaChip spots and partially dried.
(§8) This was followed by stamping of the three-dimensional cell chip (DataChip) containing either MCF7 or Hep3B cells onto the MetaChip.
(§9) To this end, a MetaChip consisting of 20×54 alginate spots was prepared; each spot containing a single human P450 isoform (CYP1A2, CYP2D6, or CYP3A4), a mixture of the three isoforms, or no P450 as a test compound only control. Addition of test compounds was carried out by overlay spotting of solutions of these compounds onto the MetaChip, which was then stamped on top of the DataChip.
(§10) Using three DataChips in combination with three MetaChips, IC50 values for 27 compounds and their P450-generated metabolites against human Hep3B cells were determined. […] The three P450 isoforms were used along with an equimolar mixture of the three isoforms and a test compound only control without P450. The test compounds were added to the MetaChip, which was then stamped onto the DataChip and incubated for 6 h. This was followed by removing the DataChip, rinsing with growth medium, incubating in media for 3 days, and then stained for cell viability.

human Hep3B cells = assay: Cytotoxicity of compounds and their P450-generated metabolites, Hep3B DataChip stamped with MetaChip
Procedure: as §1, §2, §3, §4, §5, §6, §7, §8, §9, §10

[1] = IC50, CYP1A2, Hep3B DataChip, MetaChip spots with CYP1A2
[2] = IC50, CYP2D6, Hep3B DataChip, MetaChip spots with CYP2D6
[3] = IC50, CYP3A4, Hep3B DataChip, MetaChip spots with CYP3A4
[4] = IC50, Mixture, Hep3B DataChip, equimolar mixture of CYP1A2, CYP2D6, CYP3A4
[5] = IC50, No P450, Hep3B DataChip, test compound only control without P450
[6] = Hep3B cells, compared with no P450

SMILES	IC50 at 6 h (in vitro; [1]) [µM]	IC50 at 6 h (in vitro; [2]) [µM]	IC50 at 6 h (in vitro; [3]) [µM]	IC50 at 6 h (in vitro; [4]) [µM]	IC50 at 6 h (in vitro; [5]) [µM]	Activation or deactivation of the toxic response by CYP1A2 (human Hep3B cells)	Activation or deactivation of the toxic response by CYP2D6 (human Hep3B cells)	other results
C[n+]1ccc(-c2cc[n+](C)cc2)cc1 [Paraquat, paraquat]								IC50 (in vitro; [1]): 5.06 ± 0.29 µM; IC50 (in vitro; [2]): 20.8 ± 1.8 µM; IC50 (in vitro; [3]): 52 ± 9.12 µM; IC50 (in vitro; [4]): 44.2 ± 6.05 µM; IC50 (in vitro; [5]): 79.8 ± 12.7 µM; Activation or deactivation of the toxic response by the mixture of the three P450 isoforms (human Hep3B cells; Hep3B cells): activation; Activation or deactivation of the toxic response by CYP1A2 (human Hep3B cells; [6]): activation; Activation or deactivation of the toxic response by CYP2D6 (human Hep3B cells; [6]): activation; also recorded: activated
Oc1c(Cl)c(Cl)c(Cl)c(Cl)c1Cl [Pentachlorophenol]								IC50 (in vitro; IC50, CYP1A2): > 1000 µM; IC50 (in vitro; IC50, CYP2D6): > 1000 µM; IC50 (in vitro; IC50, CYP3A4): > 1000 µM; IC50 (in vitro; IC50, Mixture): 489 ± 272 µM; IC50 (in vitro; IC50, No P450): > 1000 µM
O=c1[nH]c(=O)n(C2CCCO2)cc1F (centres unmarked) [Tegafur, 5-fluoro-1-(tetrahydro-2-furfuryl)-uracil]	> 1000	> 1000	54800 ± 21400	> 1000	> 1000			
C[C@H]1O[C@@H](O[C@H]2[C@@H](O)C[C@H](O[C@H]3[C@@H](O)C[C@H](O[C@H]4CC[C@@]5(C)[C@H](CC[C@@H]6[C@@H]5C[C@@H](O)[C@]5(C)[C@@H](C7=CC(=O)OC7)CC[C@]65O)C4)O[C@@H]3C)O[C@@H]2C)C[C@H](O)[C@@H]1O [Digoxin]	1.29 ± 0.09	0.43 ± 0.03	1.37 ± 0.05	0.59 ± 0.03	0.8 ± 0.09			IC50 at 6 h (in vitro; IC50 values, Hep3B DataChip): < 1 µM
CC(=O)Nc1ccc(O)cc1 [Acetaminophen, acetaminophen]	2590 ± 960	> 1000	2770 ± 1240	> 1000	> 1000	strongly activated		Activation or deactivation of the toxic response by CYP3A4 (human Hep3B cells): strongly activated; IC30 (human Hep3B cells): (IC30: 0.50 ± 0.02)
CC(=O)O[C@H]1C(=O)[C@@]2(C)[C@H]([C@H](OC(=O)c3ccccc3)[C@]3(O)C[C@H](OC(=O)[C@H](O)[C@@H](NC(=O)c4ccccc4)c4ccccc4)C(C)=C1C3(C)C)[C@]1(OC(C)=O)CO[C@@H]1C[C@@H]2O [Paclitaxel, paclitaxel]							deactivating	
CCN(CC)CCCC(C)Nc1ccnc2cc(Cl)ccc12 (centres unmarked) [Chloroquine]	184 ± 19.9	112 ± 22.3	79.7 ± 12.8	94.5 ± 14.1	189 ± 25.2			Activation or deactivation of the toxic response by CYP3A4 (human Hep3B cells; [6]): deactivated
CN(C)CCC=C1c2ccccc2CCc2ccccc21 [Amitriptyline]	75 ± 14.2	55.9 ± 10.1	63.4 ± 12.1	75.6 ± 9.89	31.7 ± 1.98	moderately to weakly deactivated		
NNC(=O)c1ccncc1 [Isoniazid]	353 ± 89.9	> 1000	> 1000	> 1000	> 1000			
Cl[C@H]1[C@H](Cl)[C@@H](Cl)[C@@H](Cl)[C@H](Cl)[C@H]1Cl [Lindane]	2730 ± 1080	5150 ± 1960	523 ± 133	> 1000	394 ± 132	moderately to weakly deactivated	deactivating lindane (strongly)	Activation or deactivation of the toxic response by the mixture of the three P450 isoforms (human Hep3B cells): greater deactivation in the mixture than with any of the three individual isoforms
CN1CCCC1c1cccnc1 (centres unmarked) [Nicotine]						moderately to weakly deactivated	deactivating	IC50 (in vitro; IC50, CYP1A2): 90.8 ± 20.3 µM; IC50 (in vitro; IC50, CYP2D6): 158 ± 39.5 µM; IC50 (in vitro; IC50, CYP3A4): 647 ± 191 µM; IC50 (in vitro; IC50, Mixture): 377 ± 147 µM; IC50 (in vitro; IC50, No P450): 29.5 ± 4.12 µM; Activation or deactivation of the toxic response by CYP3A4 (human Hep3B cells): deactivated chloroquine, quinidine, nicotine (strongly)
CC(=O)Oc1ccccc1C(=O)O [Acetylsalicylic Acid]	> 1000	> 1000	> 1000	> 1000	> 1000			
O=P1(N(CCCl)CCCl)NCCCO1 (centres unmarked) [Cyclophosphamide, cyclophosphamide]	> 1000	> 1000	2110 ± 600	> 1000	> 1000			Activation or deactivation of the toxic response by CYP3A4 (human Hep3B cells; [6]): strongly activated
CN(Cc1cnc2nc(N)nc(N)c2n1)c1ccc(C(=O)N[C@@H](CCC(=O)O)C(=O)O)cc1 [Methotrexate]	2.79 ± 0.73	38.3 ± 12.1	10.9 ± 2.76	8 ± 2.97	2.41 ± 0.55		deactivating	Activation or deactivation of the toxic response by CYP3A4 (human Hep3B cells): deactivated
CC(=O)CC(c1ccccc1)c1c(O)c2ccccc2oc1=O (centres unmarked) [Warfarin]								IC50 at 6 h (in vitro; IC50, CYP1A2): > 1000 µM; IC50 at 6 h (in vitro; IC50, CYP2D6): > 1000 µM; IC50 at 6 h (in vitro; IC50, CYP3A4): > 1000 µM; IC50 at 6 h (in vitro; IC50, Mixture): > 1000 µM; IC50 at 6 h (in vitro; IC50, No P450): > 1000 µM
C=C[C@H]1C[N@@]2CC[C@H]1C[C@@H]2[C@@H](O)c1ccnc2ccc(OC)cc12 [Quinidine]	92.9 ± 7.5	106 ± 9.05	126 ± 10.2	246 ± 39.4	19.2 ± 2.36			Activation or deactivation of the toxic response by the mixture of the three P450 isoforms (human Hep3B cells; Hep3B cells): greater deactivation in the mixture than with any of the three individual isoforms; Activation or deactivation of the toxic response by CYP1A2 (human Hep3B cells; [6]): moderately to weakly deactivated; Activation or deactivation of the toxic response by CYP2D6 (human Hep3B cells; [6]): deactivating; Activation or deactivation of the toxic response by CYP3A4 (human Hep3B cells; [6]): deactivated
Cn1c(=O)c2[nH]cnc2n(C)c1=O [Theophylline]	239 ± 56.4	119 ± 26.3	36.9 ± 11.2	84.3 ± 22.1	38.4 ± 8.92	moderately to weakly deactivated	deactivating	
Nc1ccn([C@@H]2O[C@H](CO)[C@@H](O)[C@@H]2O)c(=O)n1 [Cytarabine]						moderately to weakly deactivated	deactivating	
